Test system: NOMO1
Assay: cell viability relative to DMSO control; higher = less cytotoxic
Details: 48 h
Outline: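 Viability is a per-plate percentage relative to DMSO wells, with cell-free wells as background. CellTiter-Glo One luminescence was read after 48 h at 37°C on 1536-well plates (5 μl) of NOMO1 or SEM (500 cells/well) or P12-Ichikawa (1000 cells/well) leukemia cells. The cells had been adapted for at least four passages in each medium and pin-dosed with library compounds in DMSO from 47 μM to 0.79 nM in 11 threefold steps.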

[1] = HPLM + 10% dialyzed FBS, 0.000781 µM
[2] = HPLM + 10% dialyzed FBS, 0.00234 µM
[3] = HPLM + 10% dialyzed FBS, 0.00702 µM
[4] = HPLM + 10% dialyzed FBS, 0.0211 µM
[5] = HPLM + 10% dialyzed FBS, 0.0632 µM
[6] = HPLM + 10% dialyzed FBS, 0.19 µM
[7] = HPLM + 10% dialyzed FBS, 0.569 µM
[8] = HPLM + 10% dialyzed FBS, 1.71 µM
[9] = HPLM + 10% dialyzed FBS, 5.12 µM
[10] = HPLM + 10% dialyzed FBS, 15.4 µM
[11] = HPLM + 10% dialyzed FBS, 46.1 µM
[12] = RPMI 5 mM glucose + 10% FBS, 0.000781 µM
[13] = RPMI 5 mM glucose + 10% FBS, 0.00234 µM
[14] = RPMI 5 mM glucose + 10% FBS, 0.00702 µM
[15] = RPMI 5 mM glucose + 10% FBS, 0.0211 µM
[16] = RPMI 5 mM glucose + 10% FBS, 0.0632 µM
[17] = RPMI 5 mM glucose + 10% FBS, 0.19 µM
[18] = RPMI 5 mM glucose + 10% FBS, 0.569 µM
[19] = RPMI 5 mM glucose + 10% FBS, 1.71 µM
[20] = RPMI 5 mM glucose + 10% FBS, 5.12 µM
[21] = RPMI 5 mM glucose + 10% FBS, 15.4 µM
[22] = RPMI 5 mM glucose + 10% FBS, 46.1 µM
[23] = RPMI 5 mM glucose + 10% dialyzed FBS, 0.000781 µM
[24] = RPMI 5 mM glucose + 10% dialyzed FBS, 0.00234 µM
[25] = RPMI 5 mM glucose + 10% dialyzed FBS, 0.00702 µM
[26] = RPMI 5 mM glucose + 10% dialyzed FBS, 0.0211 µM
[27] = RPMI 5 mM glucose + 10% dialyzed FBS, 0.0632 µM
[28] = RPMI 5 mM glucose + 10% dialyzed FBS, 0.19 µM
[29] = RPMI 5 mM glucose + 10% dialyzed FBS, 0.569 µM
[30] = RPMI 5 mM glucose + 10% dialyzed FBS, 1.71 µM
[31] = RPMI 5 mM glucose + 10% dialyzed FBS, 5.12 µM
[32] = RPMI 5 mM glucose + 10% dialyzed FBS, 15.4 µM
[33] = RPMI 5 mM glucose + 10% dialyzed FBS, 46.1 µM

CC(=O)OCC(=O)[C@@]12\N=C(C)/O[C@@H]1C[C@H]3[C@@H]4CCC/5=C/C(=O)/C=C\[C@]5(C)[C@H]4[C@@H](O)C[C@]23C
cell viability [1]: 107% | cell viability [2]: 102% | cell viability [3]: 109% | cell viability [4]: 130% | cell viability [5]: 133% | cell viability [6]: 137% | cell viability [7]: 122% | cell viability [8]: 128% | cell viability [9]: 105% | cell viability [10]: 121% | cell viability [11]: 86.6% | cell viability [12]: 94.3% | cell viability [13]: 106% | cell viability [14]: 94.6% | cell viability [15]: 105% | cell viability [16]: 108% | cell viability [17]: 106% | cell viability [18]: 107% | cell viability [19]: 113% | cell viability [20]: 107% | cell viability [21]: 98% | cell viability [22]: 99.6% | cell viability [23]: 94.1% | cell viability [24]: 96.1% | cell viability [25]: 102% | cell viability [26]: 99.2% | cell viability [27]: 105% | cell viability [28]: 117% | cell viability [29]: 109% | cell viability [30]: 113% | cell viability [31]: 109% | cell viability [32]: 104% | cell viability [33]: 91.8%

CN1CCC(CC1)COC2=CN=C(N=C2)C3=CC(=CC=C3)CN4/N=C(\C=C/C4=O)C5=CC(=CC=C5)C#N
cell viability [1]: 105% | cell viability [2]: 111% | cell viability [3]: 103% | cell viability [4]: 118% | cell viability [5]: 119% | cell viability [6]: 127% | cell viability [7]: 111% | cell viability [8]: 111% | cell viability [9]: 123% | cell viability [10]: 120% | cell viability [11]: 101% | cell viability [12]: 106% | cell viability [13]: 110% | cell viability [14]: 103% | cell viability [15]: 107% | cell viability [16]: 118% | cell viability [17]: 119% | cell viability [18]: 108% | cell viability [19]: 123% | cell viability [20]: 113% | cell viability [21]: 116% | cell viability [22]: 114% | cell viability [23]: 88% | cell viability [24]: 111% | cell viability [25]: 103% | cell viability [26]: 109% | cell viability [27]: 109% | cell viability [28]: 115% | cell viability [29]: 102% | cell viability [30]: 120% | cell viability [31]: 118% | cell viability [32]: 100% | cell viability [33]: 114%

CC1=C(C=CC=C1)N2\C(=N/C3=C(C(=CC=C3)C)C2=O)C[N]4N=CC5=C4N=CN=C5N
cell viability [1]: 114% | cell viability [2]: 116% | cell viability [3]: 147% | cell viability [4]: 133% | cell viability [5]: 148% | cell viability [6]: 147% | cell viability [7]: 49.6% | cell viability [8]: 44.3% | cell viability [9]: 40% | cell viability [10]: 38.5% | cell viability [11]: 35.2% | cell viability [12]: 122% | cell viability [13]: 126% | cell viability [14]: 121% | cell viability [15]: 143% | cell viability [16]: 125% | cell viability [17]: 129% | cell viability [18]: 33.4% | cell viability [19]: 26% | cell viability [20]: 26.2% | cell viability [21]: 22.9% | cell viability [22]: 22.7%

COC[C@@H](NC(C)=O)C(=O)NCc1ccccc1
cell viability [1]: 112% | cell viability [2]: 119% | cell viability [3]: 117% | cell viability [4]: 132% | cell viability [5]: 116% | cell viability [6]: 118% | cell viability [7]: 114% | cell viability [8]: 117% | cell viability [9]: 107% | cell viability [10]: 105% | cell viability [11]: 86.7% | cell viability [12]: 95.9% | cell viability [13]: 110% | cell viability [14]: 97% | cell viability [15]: 102% | cell viability [16]: 118% | cell viability [17]: 109% | cell viability [18]: 119% | cell viability [19]: 104% | cell viability [20]: 104% | cell viability [21]: 112% | cell viability [22]: 64.8% | cell viability [23]: 106% | cell viability [24]: 117% | cell viability [25]: 116% | cell viability [26]: 114% | cell viability [27]: 125% | cell viability [28]: 115% | cell viability [29]: 125% | cell viability [30]: 124% | cell viability [31]: 131% | cell viability [32]: 118% | cell viability [33]: 69.5%

CCOC(=O)N1CCN(/[N+]([O-])=N/Oc2ccc([N+](=O)[O-])cc2[N+](=O)[O-])CC1
cell viability [1]: 85.1% | cell viability [2]: 102% | cell viability [3]: 102% | cell viability [4]: 106% | cell viability [5]: 117% | cell viability [6]: 101% | cell viability [7]: 109% | cell viability [8]: 110% | cell viability [9]: 97.1% | cell viability [10]: 98.5% | cell viability [11]: 50.8% | cell viability [12]: 80% | cell viability [13]: 100% | cell viability [14]: 89.3% | cell viability [15]: 94.7% | cell viability [16]: 89.2% | cell viability [17]: 92.9% | cell viability [18]: 94.1% | cell viability [19]: 98.5% | cell viability [20]: 102% | cell viability [21]: 87% | cell viability [22]: 38.5% | cell viability [23]: 82.1% | cell viability [24]: 87.5% | cell viability [25]: 80.1% | cell viability [26]: 86.8% | cell viability [27]: 99.7% | cell viability [28]: 96.6% | cell viability [29]: 86.7% | cell viability [30]: 89.5% | cell viability [31]: 89.2% | cell viability [32]: 89.6% | cell viability [33]: 41.9%

C\C1=C\C(=O)C2=C(C=CC=C2)C1=O
cell viability [1]: 100% | cell viability [2]: 122% | cell viability [3]: 117% | cell viability [4]: 134% | cell viability [5]: 132% | cell viability [6]: 126% | cell viability [7]: 126% | cell viability [8]: 134% | cell viability [9]: 128% | cell viability [10]: 131% | cell viability [11]: 127% | cell viability [12]: 116% | cell viability [13]: 108% | cell viability [14]: 120% | cell viability [15]: 125% | cell viability [16]: 133% | cell viability [17]: 133% | cell viability [18]: 137% | cell viability [19]: 124% | cell viability [20]: 129% | cell viability [21]: 125% | cell viability [22]: 140% | cell viability [23]: 119% | cell viability [24]: 117% | cell viability [25]: 131% | cell viability [26]: 130% | cell viability [27]: 140% | cell viability [28]: 128% | cell viability [29]: 135% | cell viability [30]: 151% | cell viability [31]: 128% | cell viability [32]: 148% | cell viability [33]: 134%

O=C(CO)N1CCC(c2n[nH]c(-c3ccc(Cl)cc3)c2-c2ccncn2)CC1
cell viability [1]: 117% | cell viability [2]: 121% | cell viability [3]: 134% | cell viability [4]: 129% | cell viability [5]: 117% | cell viability [6]: 129% | cell viability [7]: 120% | cell viability [8]: 117% | cell viability [9]: 123% | cell viability [10]: 34.6% | cell viability [11]: 78.2% | cell viability [12]: 111% | cell viability [13]: 115% | cell viability [14]: 118% | cell viability [15]: 113% | cell viability [16]: 121% | cell viability [17]: 111% | cell viability [18]: 113% | cell viability [19]: 115% | cell viability [20]: 119% | cell viability [21]: 57.3% | cell viability [22]: 96.3% | cell viability [23]: 113% | cell viability [24]: 123% | cell viability [25]: 116% | cell viability [26]: 105% | cell viability [27]: 123% | cell viability [28]: 111% | cell viability [29]: 109% | cell viability [30]: 119% | cell viability [31]: 113% | cell viability [32]: 41.6% | cell viability [33]: 92.8%
